Series [1] can be described thus: H+/Na+ transport assay of bead-derived peptides (one-point).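 Note: relative to parent gramicidin A activity set to 1.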 The format is biochemical. Further details: key: relative activity; mean of two control wells = 1.00. Particulars: bead-derived peptide solution, EYPC/EYPG LUVs. The gist of the method:
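Pyranine (1.0 mM)-loaded LUVs containing egg yolk phosphatidylglycerol were prepared by film hydration, sonication and extrusion, then mixed with diluted bead-derived peptide in 96-well format and vortexed 30 min at room temperature. Fluorescence was normalized between untreated LUVs (0%) and Triton X-100 lysis (100%).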

Series [2] has as its system P388 mouse leukemia cells. Conditions: 92 h. The gist of the method:
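P388 cells at 1 × 10^4 cells/mL (final) were exposed to library peptides (stocks diluted 250-fold in RPMI1640/10% FBS) for 92 h at 37 °C, 5% CO2. Viable cells were counted by WST-1/1-methoxy PMS (4 h), absorbance 415 nm, and expressed as cell viability (%).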

The test system of series [3] is Streptococcus pyogenes SSI-9. Kind of series: Antibacterial activity assay of bead-derived peptides (three concentrations). The format is cell-based. Conditions: S. pyogenes, bead-derived peptide solution, three concentrations. Also on record: key: +++: inhibition by the 640-fold diluted peptide solution; ++: inhibition by the 160-fold diluted solution; +: inhibition by the 40-fold diluted solution; -: no inhibition. The gist of the method: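 Library peptide stock applied undiluted, 4-fold and 16-fold diluted in DMSO to S. pyogenes SSI-9 (2 × 10^5 CFU) in cation-adjusted Mueller Hinton broth with 5% laked horse blood. After 18 h at 37 °C, growth judged by visible cell precipitation.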

Where a SMILES comes first, the peptide text is derived from it. [ ]: non-standard residue; d: D form. The star is where a group is joined. NHCH2CH2OH = OCCN*; For = O=C*

In the case of `CNC(=O)C[C@@H](NC(=O)[C@H](Cc1c[nH]c2ccccc12)NC(=O)[C@@H](CC(C)C)NC(=O)[C@H](Cc1c[nH]c2ccccc12)NC(=O)[C@H](NC(=O)[C@H](Cc1c[nH]c2ccccc12)NC(=O)[C@@H](CC(C)C)NC(=O)[C@@H](NC(=O)[C@H](NC(=O)[C@H](C)NC(=O)[C@H](NC(=O)[C@H](C)NC(=O)CNC(=O)[C@@H](NC=O)C(C)C)C(C)C)C(C)C)C(C)C)C(C)C)C(=O)N[C@@H](Cc1c[nH]c2ccccc12)C(=O)NCCO` [compound 5538] (For-VGA[dV]A[dV]V[dL]W[dV]W[dL]W[dD](NHMe)W-NHCH2CH2OH), the “H+/Na+ transport activity normalized against the value of 1 (1.00)” value (“H+/Na+ transport activity normalized” below) in series [1] amounted to 1.06. Moreover, in series [2], the cell viability/% is reported as 100.0%. For the same compound, the antibacterial activity entry in series [3] is reported as “-”.

As to `CC(C)C[C@@H](NC(=O)[C@H](C)NC(=O)CNC(=O)[C@@H](NC=O)C(C)C)C(=O)N[C@@H](C)C(=O)N[C@H](CC(C)C)C(=O)N[C@H](C(=O)N[C@H](CC(C)C)C(=O)N[C@@H](Cc1c[nH]c2ccccc12)C(=O)N[C@H](CC(C)C)C(=O)N[C@@H](Cc1c[nH]c2ccccc12)C(=O)N[C@@H](C(=O)N[C@@H](Cc1c[nH]c2ccccc12)C(=O)N[C@@H](C(=O)N[C@@H](Cc1c[nH]c2ccccc12)C(=O)NCCO)C(C)C)[C@H](C)O)C(C)C` [compound 12989] (For-VGA[dL]A[dL]V[dL]W[dL]W[dT]W[dV]W-NHCH2CH2OH), the “H+/Na+ transport activity normalized” value in series [1] is on record as 1.16. Besides, in series [2], the cell viability/% is given as 100.0%. Besides, in series [3], the antibacterial activity entry is recorded as “+”.

Consider `CC(C)C[C@@H](NC(=O)[C@H](Cc1c[nH]c2ccccc12)NC(=O)[C@H](NC(=O)[C@H](Cc1c[nH]c2ccccc12)NC(=O)[C@@H](CC(C)C)NC(=O)[C@H](Cc1c[nH]c2ccccc12)NC(=O)[C@H](NC(=O)[C@@H](NC(=O)[C@H](NC(=O)[C@H](C)NC(=O)[C@H](NC(=O)[C@H](C)NC(=O)CNC(=O)[C@@H](NC=O)C(C)C)[C@H](C)O)C(C)C)C(C)C)C(C)C)C(C)C)C(=O)N[C@@H](Cc1c[nH]c2ccccc12)C(=O)NCCO` [compound 3548] (For-VGA[dT]A[dV]V[dV]W[dL]W[dV]W[dL]W-NHCH2CH2OH), for which the “H+/Na+ transport activity normalized” value in series [1] was 1.16. Moreover, the cell viability/% in series [2] is given as 100.0%. Moreover, the antibacterial activity entry in series [3] was “-”.

In the case of `CNC(=O)C[C@@H](NC(=O)[C@@H](NC(=O)[C@@H](CC(C)C)NC(=O)[C@H](C)NC(=O)[C@@H](CC(C)C)NC(=O)[C@H](C)NC(=O)CNC(=O)[C@@H](NC=O)C(C)C)C(C)C)C(=O)N[C@@H](Cc1c[nH]c2ccccc12)C(=O)N[C@H](CC(C)C)C(=O)N[C@@H](Cc1c[nH]c2ccccc12)C(=O)N[C@H](CC(C)C)C(=O)N[C@@H](Cc1c[nH]c2ccccc12)C(=O)N[C@@H](C(=O)N[C@@H](Cc1c[nH]c2ccccc12)C(=O)NCCO)C(C)C` [compound 6851] (For-VGA[dL]A[dL]V[dD](NHMe)W[dL]W[dL]W[dV]W-NHCH2CH2OH), in series [1], the “H+/Na+ transport activity normalized” value is listed as 1.16. In series [2], this compound yielded a cell viability/% of 100.0%. In addition, in series [3], the antibacterial activity entry was “-”.

Take `CC(C)C[C@@H](NC(=O)[C@H](Cc1c[nH]c2ccccc12)NC(=O)[C@@H](CC(C)C)NC(=O)[C@@H](NC(=O)[C@H](NC(=O)[C@H](C)NC(=O)[C@H](NC(=O)[C@H](C)NC(=O)CNC(=O)[C@@H](NC=O)C(C)C)C(C)C)C(C)C)C(C)C)C(=O)N[C@@H](Cc1c[nH]c2ccccc12)C(=O)N[C@@H](C(=O)N[C@@H](Cc1c[nH]c2ccccc12)C(=O)N[C@@H](C(=O)N[C@@H](Cc1c[nH]c2ccccc12)C(=O)NCCO)C(C)C)C(C)C` [compound 8969] (For-VGA[dV]A[dV]V[dL]W[dL]W[dV]W[dV]W-NHCH2CH2OH): the “H+/Na+ transport activity normalized” value in series [1] is recorded as 1.09. For the same compound, in series [2], the cell viability/% is 8.7%. In addition, in series [3], the antibacterial activity entry is listed as “-”.

For the origin of these results see publication PMC7531004, “Discovery of gramicidin A analogues with altered activities by multidimensional screening of a one-bead-one-compound library” (Nature Communications, 2020).
